Experimental data: PubChem BioAssay (NCI)
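Assay format: 96-well plates, 48-hour exposure. TGI is the concentration that stops growth completely.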

Legend:
Assay in all cases: NCI-60 cell line screen, 48 h
[1] = system: M14 melanoma
[2] = system: NCI-H522 lung
[3] = system: RXF 393 renal
[4] = system: SK-MEL-2 melanoma
[5] = system: CAKI-1 renal
[6] = system: HS 578T breast
[7] = system: TK-10 renal
[8] = system: HOP-62 NSCLC
[9] = system: NCI-H23 lung
[10] = system: SK-OV-3 ovarian

For `Cc1cc(S(N)(=O)=O)c(SCc2nc(N)nc(N(C)C)n2)cc1Cl`, the TGI [1] was over 10 µM, the TGI [2] was over 10 µM and the TGI [3] was over 10 µM. For the same compound, the TGI [4] was over 10 µM, the TGI [5] was over 10 µM and the TGI [6] was over 10 µM. It also gave a TGI [7] of over 10 µM, a TGI [8] of over 10 µM and a TGI [9] of over 10 µM. For the same compound, the TGI [10] was over 10 µM.
With `O=C(O)c1cccc(S(=O)(=O)NN2C(=O)CSC2c2ccccc2)c1` (centres undefined) the TGI [1] was over 100 µM, the TGI [2] was over 100 µM and the TGI [3] was over 100 µM. For the same compound, the TGI [4] was over 100 µM, the TGI [5] was over 100 µM and the TGI [6] was over 100 µM. The TGI [7] was over 100 µM, the TGI [8] was over 100 µM and the TGI [9] was over 100 µM. For the same compound, the TGI [10] was over 100 µM.
`COc1cc([C@@H]2c3cc4c(cc3[C@H](OC3OC5COC(C(C)C)OC5C(O)C3O)C3COC(=O)[C@@H]32)OCO4)cc(OC)c1O` (some centres undefined) showed a TGI [1] of 24.3 µM, a TGI [2] of 37.1 µM and a TGI [3] of 17.2 µM. For the same compound, the TGI [4] was 31.5 µM, the TGI [5] was 19.2 µM and the TGI [6] was 42.3 µM. For the same compound, the TGI [7] was 93.5 µM, the TGI [8] was 24.4 µM and the TGI [9] was 15.4 µM. It also gave a TGI [10] of 39.1 µM.
Compound `CC(C)(C)c1cc(C(=O)/C=C/c2ccc(O)c(O)c2O)cc(C(C)(C)C)c1O` has a TGI [1] of 20.6 µM, a TGI [2] of 4.94 µM and a TGI [3] of 13.3 µM. For the same compound, the TGI [4] was 19.2 µM, the TGI [5] was 15.6 µM and the TGI [6] was over 45.1 µM. For the same compound, the TGI [7] was 18.3 µM, the TGI [8] was 27.8 µM and the TGI [9] was 20 µM. For the same compound, the TGI [10] was 53.7 µM.
Compound `CC(C)C1CC=NN1C(=O)OC(C)(C)C` (centres undefined) has a TGI [1] of over 100 µM, a TGI [2] of over 100 µM and a TGI [3] of over 100 µM. The TGI [5] was over 100 µM, the TGI [6] was over 100 µM and the TGI [7] was over 100 µM. For the same compound, the TGI [8] was over 100 µM, the TGI [9] was over 100 µM and the TGI [10] was over 100 µM.
For `CC(=O)Nc1ccc(Nc2cc(=O)n(C)c(=O)[nH]2)cc1`, the TGI [1] was over 100 µM, the TGI [2] was over 100 µM and the TGI [3] was over 100 µM. For the same compound, the TGI [4] was over 100 µM, the TGI [5] was over 100 µM and the TGI [6] was over 100 µM. It also gave a TGI [7] of over 100 µM, a TGI [8] of over 100 µM and a TGI [9] of over 100 µM. For the same compound, the TGI [10] was over 100 µM.
For `O/N=c1/ccn(O)c2ccccc12`, the TGI [1] was 6.87 µM, the TGI [2] was 3.23 µM and the TGI [3] was 1.64 µM. It also gave a TGI [4] of 3.64 µM, a TGI [5] of 5.99 µM and a TGI [6] of over 100 µM. It also gave a TGI [7] of 5.87 µM, a TGI [8] of 9.43 µM and a TGI [9] of 8.96 µM. It also gave a TGI [10] of 3.26 µM.
With `CC[C@@H]1CN2CCC1C[C@@H]2C(O)c1ccnc2ccc(OCCN3CCN(CCOc4ccc5nccc(C(O)[C@@H]6C[C@@H]7CCN6C[C@@H]7CC)c5c4)CC3)cc12` (some centres undefined) the TGI [1] was 26.2 µM, the TGI [2] was 61.8 µM and the TGI [3] was 34.2 µM. The TGI [4] was 37.2 µM, the TGI [5] was 32.5 µM and the TGI [6] was 46.6 µM. It also gave a TGI [7] of 29.1 µM, a TGI [8] of 36.2 µM and a TGI [9] of 43.7 µM. The TGI [10] was 33.2 µM.
For `CCOC(=O)c1cccc(NC(=O)CBr)c1`, the TGI [1] was 2.75 µM, the TGI [2] was 0.0437 µM and the TGI [3] was 3.24 µM. For the same compound, the TGI [4] was 3.2 µM, the TGI [5] was 1.16 µM and the TGI [6] was 5.28 µM. For the same compound, the TGI [7] was 3.18 µM, the TGI [8] was 3.41 µM and the TGI [9] was 2.77 µM. It also gave a TGI [10] of 3.43 µM.
`COc1ccc(NC(=O)CC(=O)n2nc(C)c(N=Nc3ccc(C)c(C)c3)c2C)cc1` showed a TGI [1] of over 100 µM, a TGI [2] of over 100 µM and a TGI [3] of over 100 µM. The TGI [4] was over 100 µM, the TGI [5] was over 100 µM and the TGI [6] was 97.4 µM. It also gave a TGI [7] of over 100 µM, a TGI [8] of over 100 µM and a TGI [9] of over 100 µM. For the same compound, the TGI [10] was 27.7 µM.
